Reference: patent US20230340011A1 (Asteroid Therapeutics, priority 2022, published 2023)
Like-named read-outs stand apart in the source and are kept apart here.

Legend:
SREBP-2 = SREBP-2 (Homo sapiens (Human), UniProt Q12772); assay: In vitro assay SREBP-2: PathHunter U2OS SREBP-2 Nuclear Translocation Cell Line, U18666A-stimulated; assay type: cell-based
LXRβ = LXRβ (Homo sapiens (Human), UniProt P55055); assay: In vitro assay LXRβ: PathHunter NHR CHO cells, LXRβ / Steroid Receptor Co-activator Peptide enzyme fragment complementation; assay type: cell-based; conditions: PathHunter NHR CHO cells, full-length human LXRβ and SRCP, chemiluminescent signal; read-out: LXRβ PPI
In short: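 Co-activator recruitment measured by chemiluminescence after signal generation. The CHO line carries full-length human LXRβ tagged with ProLink and an SRCP–enzyme acceptor fusion in the nucleus; cells sat overnight at 37° C before testing, in charcoal-dextran filtered serum medium with 1% final vehicle.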

[1] = PathHunter U2OS SREBP-2 nuclear translocation cells, U18666A 10 μM, overnight (16 hours)

LXRβ, sequence (P55055 whole entry, the tested form may be a part): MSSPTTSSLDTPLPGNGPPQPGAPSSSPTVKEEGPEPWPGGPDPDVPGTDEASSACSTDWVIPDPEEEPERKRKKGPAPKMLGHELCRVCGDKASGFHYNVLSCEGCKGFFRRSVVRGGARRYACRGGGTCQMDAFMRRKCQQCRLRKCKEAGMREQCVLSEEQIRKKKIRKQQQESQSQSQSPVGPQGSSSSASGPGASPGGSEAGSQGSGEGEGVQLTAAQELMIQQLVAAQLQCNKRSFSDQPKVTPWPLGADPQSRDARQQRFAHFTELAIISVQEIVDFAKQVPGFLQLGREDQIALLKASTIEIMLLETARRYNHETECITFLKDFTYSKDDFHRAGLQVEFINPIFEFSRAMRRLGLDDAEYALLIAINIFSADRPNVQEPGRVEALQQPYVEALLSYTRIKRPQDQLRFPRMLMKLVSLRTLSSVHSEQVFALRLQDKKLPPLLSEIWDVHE

Row | SMILES | IC50 (SREBP-2; [1]) [nM] | EC50 (LXRβ) [nM] | IC50 (SREBP-2) [nM]
1 | C[C@H](CCC(=O)N1CCN(C(=O)c2ccncc2)C[C@@H]1C)[C@H]1CC[C@H]2[C@@H]3CC=C4C[C@@H](O)CC[C@]4(C)[C@H]3CC[C@]12C [Example 590, (R)-4-((3S,8S,9S,10R,13R,14S,17R)-3-hydroxy-10,13-dimethyl-2,3,4,7,8,9,10,11,12,13,14,15,16,17-tetradecahydro-1H-cyclopenta[a]phenanthren-17-yl)-1-((S)-4-isonicotinoyl-2-methylpiperazin-1-yl)pentan-1-one] | < 250 | > 10000 | 
2 | CCC1(O)CCN(C(=O)CC[C@@H](C)[C@H]2CC[C@H]3[C@@H]4CC=C5C[C@@H](O)C[C@H](O)[C@]5(C)[C@H]4CC[C@]23C)CC1 [Example 156, (R)-4-((1S,3R,8S,9S,10R,13R,14S,17R)-1,3-dihydroxy-10,13-dimethyl-2,3,4,7,8,9,10,11,12,13,14,15,16,17-tetradecahydro-1H-cyclopenta[a]phenanthren-17-yl)-1-(4-ethyl-4-hydroxypiperidin-1-yl)pentan-1-one] | > 10000 | < 250 | 
3 | C[C@H](CCC(=O)N1CCN(C(=O)c2ncccn2)CC1)[C@H]1CC[C@H]2[C@@H]3CC=C4C[C@@H](O)CC[C@]4(C)[C@H]3CC[C@]12C [Example 332, (R)-4-((3S,8S,9S,10R,13R,14S,17R)-3-hydroxy-10,13-dimethyl-2,3,4,7,8,9,10,11,12,13,14,15,16,17-tetradecahydro-1H-cyclopenta[a]phenanthren-17-yl)-1-(4-(pyrimidine-2-carbonyl)piperazin-1-yl)pentan-1-one] | < 250 | > 10000 | 
4 | Cc1ccnc(CC[C@@H](C)[C@H]2CC[C@H]3[C@@H]4CC=C5C[C@@H](O)CC[C@]5(C)[C@H]4CC[C@]23C)n1 [Example 191, (3S,8S,9S,10R,13R,14S,17R)-10,13-dimethyl-17-((R)-4-(4-methylpyrimidin-2-yl)butan-2-yl)-2,3,4,7,8,9,10,11,12,13,14,15,16,17-tetradecahydro-1H-cyclopenta[a]phenanthren-3-ol] | < 250 | 250 to 1000 | 
5 | C[C@H](CCC(=O)N1CCN(c2cc(O)ncn2)CC1)[C@H]1CC[C@H]2[C@@H]3CC=C4C[C@@H](O)CC[C@]4(C)[C@H]3CC[C@]12C [Example 631, (4R)-4-[(1R,3aS,3bS,7S,9aR,9bS,11aR)-7-hydroxy-9a,11a-dimethyl-1H,2H,3H,3aH,3bH,4H,6H,7H,8H,9H,9aH,9bH,10H,11H,11aH-cyclopenta[a]phenanthren-1-yl]-1-[4-(6-hydroxypyrimidin-4-yl)piperazin-1-yl]pentan-1-one] | < 250 | > 10000 | 
6 | CCN(CC)C(=O)N1CCN(C(=O)CC[C@@H](C)[C@H]2CC[C@H]3[C@@H]4CC=C5C[C@@H](O)CC[C@]5(C)[C@H]4CC[C@]23C)CC1 [Example 212, N,N-diethyl-4-((R)-4-((3S,8S,9S,10R,13R,14S,17R)-3-hydroxy-10,13-dimethyl-2,3,4,7,8,9,10,11,12,13,14,15,16,17-tetradecahydro-1H-cyclopenta[a]phenanthren-17-yl)pentanoyl)piperazine-1-carboxamide] | < 250 | > 10000 | 
7 | COC(=O)N1CCSC12CN(C(=O)CC[C@@H](C)[C@H]1CC[C@H]3[C@@H]4CC=C5C[C@@H](O)CC[C@]5(C)[C@H]4CC[C@]13C)C2 [Example 553, Methyl 2-((R)-4-((3S,8S,9S,10R,13R,14S,17R)-3-hydroxy-10,13-dimethyl-2,3,4,7,8,9,10,11,12,13,14,15,16,17-tetradecahydro-1H-cyclopenta[a]phenanthren-17-yl)pentanoyl)-5-thia-2,8-diazaspiro[3.4]octane-δ-carboxylate] | 250 to 1000 | > 10000 | 
8 | C[C@H](CCC(=O)N1CCN(c2ccnnc2)CC1)[C@H]1CC[C@H]2[C@@H]3CC=C4C[C@@H](O)CC[C@]4(C)[C@H]3CC[C@]12C [Example 487, (R)-4-((3S,8S,9S,10R,13R,14S,17R)-3-hydroxy-10,13-dimethyl-2,3,4,7,8,9,10,11,12,13,14,15,16,17-tetradecahydro-1H-cyclopenta[a]phenanthren-17-yl)-1-(4-(pyridazin-4-yl)piperazin-1-yl)pentan-1-one] | < 250 | > 10000 | 
9 | COC(=O)N1CCN(C(=O)C[C@@H](C)[C@H]2CC[C@H]3[C@@H]4CC=C5C[C@@H](O)CC[C@]5(C)[C@H]4CC[C@]23C)CC1 [Example 593, Methyl 4-[(3R)-3-[(1R,3aS,3bS,7S,9aR,9bS,11aR)-7-hydroxy-9a,11a-dimethyl-1H,2H,3H,3aH,3bH,4H,6H,7H,8H,9H,9aH,9bH,10H,11H,11aH-cyclopenta[a]phenanthren-1-yl]butanoyl]piperazine-1-carboxylate] | 1000 to 10000 | > 10000 | 
10 | COc1ccnc(CC[C@@H](C)[C@H]2CC[C@H]3[C@@H]4CC=C5C[C@@H](O)CC[C@]5(C)[C@H]4CC[C@]23C)c1 [Example 602, (3S,8S,9S,10R,13R,14S,17R)-17-((R)-4-(4-methoxypyridin-2-yl)butan-2-yl)-10,13-dim ethyl-2,3,4,7,8,9,10,11,12,13,14,15,16,17-tetradecahydro-1H-cyclopenta[a]phenanthren-3-ol] | < 250 | 250 to 1000 | 
11 | C[C@H](CCC(=O)N1CCN(c2ccncc2)CC1)[C@H]1CC[C@H]2[C@@H]3CC=C4C[C@@H](O)CC[C@]4(C)[C@H]3CC[C@]12C [Example 396, (R)-4-((3S,8S,9S,10R,13R,14S,17R)-3-hydroxy-10,13-dimethyl-2,3,4,7,8,9,10,11,12,13,14,15,16,17-tetradecahydro-1H-cyclopenta[a]phenanthren-17-yl)-1-(4-(pyridin-4-yl)piperazin-1-yl)pentan-1-one] | < 250 | > 10000 | 
12 | C[C@H](CCc1cnccn1)[C@H]1CC[C@H]2[C@@H]3CC=C4C[C@@H](O)CC[C@]4(C)[C@H]3CC[C@]12C [Example 136, (3S,8S,9S,10R,13R,14S,17R)-10,13-dimethyl-17-((R)-4-(pyrazin-2-yl)butan-2-yl)-2,3,4,7,8,9,10,11,12,13,14,15,16,17-tetradecahydro-1H-cyclopenta[a]phenanthren-3-ol] | < 250 | 250 to 1000 | 
13 | CNC(=O)c1ccc(OC[C@@H](C)[C@H]2CC[C@H]3[C@@H]4CC=C5C[C@@H](O)CC[C@]5(C)[C@H]4CC[C@]23C)nc1 [Example 255, 6-((S)-2-((3S,8S,9S,10R,13S,14S,17R)-3-hydroxy-10,13-dimethyl-2,3,4,7,8,9,10,11,12,13,14,15,16,17-tetradecahydro-1H-cyclopenta[a]phenanthren-17-yl)propoxy)-N-methylnicotinamide] | < 250 | > 10000 | 
14 | CON(C)C(=O)C(C)C[C@@H](C)[C@H]1CC[C@H]2[C@@H]3CC=C4C[C@@H](O)CC[C@]4(C)[C@H]3CC[C@]12C (stereo partly drawn) [Example 142, (4R)-4-((3S,8S,9S,10R,13R,14S,17R)-3-hydroxy-10,13-dimethyl-2,3,4,7,8,9,10,11,12,13,14,15,16,17-tetradecahydro-1H-cyclopenta[a]phenanthren-17-yl) -N-methoxy-N,2-dimethylpentanamide] |  | 1000 to 10000 | 1000 to 10000
15 | C[C@H](CCC(=O)N1CCN(c2ccnc(N)n2)CC1)[C@H]1CC[C@H]2[C@@H]3CC=C4C[C@@H](O)CC[C@]4(C)[C@H]3CC[C@]12C [Example 560, (R)-1-(4-(2-aminopyrimidin-4-yl)piperazin-1-yl)-4-((3S,8S,9S,10R,13R,14S,17R)-3-hydroxy-10,13-dimethyl-2,3,4,7,8,9,10,11,12,13,14,15,16,17-tetradecahydro-1H-cyclopenta[a]phenanthren-17-yl)pentan-1-one] | < 250 | > 10000 | 
16 | [C-]#[N+]c1cccnc1CC[C@@H](C)[C@H]1CC[C@H]2[C@@H]3CC=C4C[C@@H](O)CC[C@]4(C)[C@H]3CC[C@]12C [Example 638, (3S,8S,9S,10R,13R,14S,17R)-17-((R)-4-(3-isocyanopyridin-2-yl)butan-2-yl)-10,13-dim ethyl-2,3,4,7,8,9,10,11,12,13,14,15,16,17-tetradecahydro-1H-cyclopenta[a]phenanthren-3-ol] | < 250 | 250 to 1000 | 
17 | C[C@H](CCC(=O)N1CCN(C(=O)C(C)(C)O)CC1)[C@H]1CC[C@H]2[C@@H]3CC=C4C[C@@H](O)CC[C@]4(C)[C@H]3CC[C@]12C [Example 336, (R)-4-((3S,8S,9S,10R,13R,14S,17R)-3-hydroxy-10,13-dimethyl-2,3,4,7,8,9,10,11,12,13,14,15,16,17-tetradecahydro-1H-cyclopenta[a]phenanthren-17-yl)-1-(4-(2-hydroxy-2-methylpropanoyl)piperazin-1-yl)pentan-1-one] | < 250 | > 10000 | 
18 | C[C@H](COc1ccccc1)[C@H]1CC[C@H]2[C@@H]3CC=C4C[C@@H](O)CC[C@]4(C)[C@H]3CC[C@]12C [Example 182, (1R,3aS,3bS,7S,9aR,9bS,11aS)-9a,11a-dimethyl-1-[(2S)-1-phenoxypropan-2-yl]-1H,2H,3H,3aH,3bH,4H,6H,7H,8H,9H,9aH,9bH,10H,11H,11aH-cyclopenta[a]phenanthren-7-ol] | 250 to 1000 | > 10000 | 
19 | Cc1cc(N2CCN(C(=O)CC[C@@H](C)[C@H]3CC[C@H]4[C@@H]5CC=C6C[C@@H](O)CC[C@]6(C)[C@H]5CC[C@]34C)CC2)sn1 [Example 497, (R)-4-((3S,8S,9S,10R,13R,14S,17R)-3-hydroxy-10,13-dimethyl-2,3,4,7,8,9,10,11,12,13,14,15,16,17-tetradecahydro-1H-cyclopenta[a]phenanthren-17-yl)-1-(4-(3-methylisothiazol-5-yl)piperazin-1-yl)pentan-1-one] | < 250 | > 10000 | 
